This is an account of results in patent US6551602B1, “Skin care composition containing conjugated linoleic acid and a phenolic compound” (Conopco, Inc., priority 1999, dated 2003).

What all share (assay type): cell-based
Assay [1] deals with ICAM production by human skin fibroblasts. Briefly: Fibroblast ICAM-1 assay (PMA-induced). The following applies: PMA 10 nM. Here is the method: Fibroblasts PGE2 and ICAM Assay Intracellular adhesion molecules (ICAM) and PEG2 production by human skin fibroblasts can be induced by the inflammatory stimulus PMA (phorbal myristate acetate). PMA represents an external stressor which induces oxidative stress and inflammatory responses in cells. This model is used to model inflammation in vivo. Primary human foreskin fibroblasts at passage 2 (P2) were seeded into 96-well plates at 10000 cells/well and maintained for 24 hours in an atmosphere of 5% carbon dioxide in Dulbeccos Modified Eagles Medium (DMEM) supplemented with 10% foetal calf serum. The test substances as indicated in the table 7 below were added to fresh cell media (DMEM, supplemented with 10% foetal calf serum) in dimethylsulphoxide and ethanol final concentration<1%) in triplicate and incubated for a further 24 hours. […] The fibroblasts/media were then analysed as described below immediately or snap frozen in liquid nitrogen and stored at −70° C. for future analysis. The cells were then counted and data from the dot-blot analysis subsequently standardised to cell number. […] The soluble ICAM-1 was assessed with commercially available immunoenzymometric assay kit (R&D Systems). Concentrations of ICAM-1 in the samples were determined based on parallel running standard curve.

Assay [2] has as its system PGE2 production by human skin fibroblasts. Description: Fibroblast PGE2 assay (PMA-induced). The following applies: PMA 10 nM. How it is done: Fibroblasts PGE2 and ICAM Assay
Intracellular adhesion molecules (ICAM) and PEG2 production by human skin fibroblasts can be induced by the inflammatory stimulus PMA (phorbal myristate acetate). PMA represents an external stressor which induces oxidative stress and inflammatory responses in cells. This model is used to model inflammation in vivo.
Primary human foreskin fibroblasts at passage 2 (P2) were seeded into 96-well plates at 10000 cells/well and maintained for 24 hours in an atmosphere of 5% carbon dioxide in Dulbeccos Modified Eagles Medium (DMEM) supplemented with 10% foetal calf serum. The test substances as indicated in the table 7 below were added to fresh cell media (DMEM, supplemented with 10% foetal calf serum) in dimethylsulphoxide and ethanol final concentration<1%) in triplicate and incubated for a further 24 hours. Phorbal myristate acetate (PMA) (Sigma) was added 10 nM to the media and the cells incubated for a further 24 hours. […] The fibroblasts/media were then analysed as described below immediately or snap frozen in liquid nitrogen and stored at −70° C. for future analysis. The cells were then counted and data from the dot-blot analysis subsequently standardised to cell number.
Prostaglandin E2 (PGE2) Assay
Volumes of 50 μl culture medium were taken for PGE2 assay after gently shaking the culture plate. PGE2 levels in the medium were determined with a Biotrak PGE2 immunoassay kit (Amersham, UK). The assay is based on the competition between unlabelled PGE2 in the sample and a fixed quantity of horseradish peroxidase labelled PGE2 for a limited amount of fixed PGE2 specific antibody. Concentrations of unlabelled sample PGE2 are determined according to a standard curve which was obtained at the same time.

Assay [3] concerns decorin synthesis in human dermal fibroblasts. Briefly: Dot blot assay for decorin protein in dermal fibroblast conditioned medium. The following applies: 24 h, relative to vehicle treated control = 100 arbitrary units. Here is the method: Procedure for Measuring Procollagen-I and Decorin Synthesis in Human Dermal Fibroblasts
Preparation of Dermal Fibroblast Conditioned Medium
Primary human foreskin fibroblasts at passage 2 (P2) were seeded into 12-well plates at 10000 cells/cm^2 and maintained for 24 hours in an atmosphere of 5% carbon dioxide and 4% oxygen in Dulbeccos Modified Eagles Medium (DMEM) supplemented with 10% foetal calf serum. After this time the cells were washed with serum free DMEM and then incubated in fresh serum free DMEM for a further 60 hours.
The fibroblast monolayers were then washed again with serum free DMEM. […] This fibroblast conditioned medium was either analysed immediately or snap frozen in liquid nitrogen and stored at −70° C. for future analysis. The cells were then counted and data from the dot-blot analysis subsequently standardised to cell number. […]
Membranes prepared for decorin analysis were blocked with 3% (w/v) BSA/0.1% (v/v) Tween 20 in PBS, whilst those for procollagen-I analysis were blocked with 5% (w/v) non fat dried milk powder/0.05% Tween 20 in PBS. […] Dot intensity was assessed by computer-assisted image analysis using the quantification tools in ImageQuant™, standardised to cell number and the effects of various test reagents on decorin and procollagen-I synthesis were determined relative to a vehicle treated control value of 100 arbitrary units. […]

As to `O=C(O[C@@H]1Cc2c(O)cc(O)cc2O[C@@H]1c1cc(O)c(O)c(O)c1)c1cc(O)c(O)c(O)c1` [EGCG, epigallocatechin gallate], in assay [1] (EGCG 5 μM), the “% of inhibition of fibroblast ICAM production” value worked out at 4.5%. For the same compound, in assay [2] (EGCG 5 μM), the “% of Inhibition of Fibroblast PGE2 Levels” value stood at 35.6%. In addition, the Decorin in assay [3] (0.5 μg/ml EGCG) was −99.6%.

For `O=c1c(-c2ccc(O)cc2)coc2cc(O)cc(O)c12` [genistein], the inhibition (as a rule, the drop in the measured response relative to a control, in per cent) at 5 µM in assay [2] (Homo sapiens, Skin fibroblast, genistein 5 μM, read-out: % of Inhibition of Fibroblast PGE2 Levels) was 52%.

conjugated linoleic acid [CLA]: the “% of inhibition of fibroblast ICAM production” value in assay [1] (CLA 1 μM) amounted to 27.7%. In addition, the “% of Inhibition of Fibroblast PGE2 Levels” value in assay [2] (CLA 0.1 μM) is given as 16.9%; in assay [2] (CLA 5 μM) it was 14.5%. Besides, the Decorin in assay [3] (0.1 μM CLA) is recorded as 68.29%.
